Data reported in patent publication US20260200920A1, “SUBSTITUTED AMINOPYRIDINE COMPOUNDS FOR USE AS AKT1 INHIBITORS” (Atavistik Bio, Inc., priority 2023, published 2026).
pIC50: −log10 of the molar value.

Key:
[1] = biological target: T1, human recombinant kinase full-length AKT1 E17K (Homo sapiens, UniProt P31749, E17K); assay: AKT1 E17K kinase assay (TR-FRET, Lance); format: biochemical; conditions: 0.6 nM AKT1 E17K, 50 nM Ulight-CREBtide, either 50 μM ATP or 2 mM ATP, 60 min at RT
T1 construct: Purified human recombinant kinase full-length AKT1 E17K was expressed in insect cells; made in house; host or cells: insect cells
T1 sequence (P31749 whole entry E17K): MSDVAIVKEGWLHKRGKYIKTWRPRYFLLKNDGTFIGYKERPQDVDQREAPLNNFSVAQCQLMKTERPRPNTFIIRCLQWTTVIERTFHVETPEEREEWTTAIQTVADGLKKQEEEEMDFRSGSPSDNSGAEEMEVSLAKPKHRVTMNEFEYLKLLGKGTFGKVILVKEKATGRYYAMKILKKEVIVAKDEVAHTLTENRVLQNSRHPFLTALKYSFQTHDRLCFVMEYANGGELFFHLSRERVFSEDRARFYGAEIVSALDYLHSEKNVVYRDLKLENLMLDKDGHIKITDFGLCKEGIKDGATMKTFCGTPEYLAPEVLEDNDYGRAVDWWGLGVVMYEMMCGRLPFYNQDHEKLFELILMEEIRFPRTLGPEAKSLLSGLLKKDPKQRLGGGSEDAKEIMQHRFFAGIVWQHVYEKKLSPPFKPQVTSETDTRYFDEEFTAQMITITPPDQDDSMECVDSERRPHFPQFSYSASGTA
Summary of the method: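 Full-length AKT1 E17K from insect cells, PDPK1-activated, at 0.6 nM with 50 nM Ulight-CREBtide and 50 μM or 2 mM ATP, pH 7.5, 1% DMSO. Enzyme and compound preincubated 15 min, reaction run 60 min at RT; Eu-anti-phospho-CREB (Ser133) TR-FRET 665/620 ratio, 10-point curve, IC50 by 4-parameter fit.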

[2] = biological target: T2, human recombinant kinase full-length wildtype AKT1 (Homo sapiens, UniProt P31749); assay: AKT1 kinase assay (wildtype, TR-FRET, Lance); format: biochemical; conditions: 0.6 nM wildtype AKT1, 50 nM Ulight-CREBtide, either 50 μM ATP or 2 mM ATP, 60 min at RT
T2 construct: Purified human recombinant kinase full-length wildtype AKT1 was expressed in insect cells; made in house; host or cells: insect cells
T2 sequence (P31749 whole entry): as the sequence (P31749 whole entry E17K) above, with K17E counted along it
Summary of the method: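 Insect-cell-expressed full-length human AKT1, PDPK1-activated (0.6 nM), preincubated with compound 15 min at RT, then reacted 60 min at RT with 50 nM ULight-CREBtide and 50 μM or 2 mM ATP (pH 7.5, 1% DMSO). Phospho-CREBtide read by Eu-anti-phospho-Ser133 TR-FRET (665/620 ratio); IC50 from 10-point 4-parameter fit.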

Structure (SMILES) | pIC50 [1] | pIC50 [2]
CC1(C)C[C@@H](CN2CC(c3ccc(-n4c(-c5cccnc5N)nc5ccc(-c6ccccc6)nc54)cc3)C2)CC[C@H]1C(=O)O [Compound I-69, (1R,4S)-4-((3-(4-(2-(2-aminopyridin-3-yl)-5-phenyl-3H-imidazo[4,5-b]pyridin-3-yl)phenyl)azetidin-1-yl)methyl)-2,2-dimethylcyclohexane-1-carboxylic acid] | > 6.30 | > 4.70
CC1(C)C[C@H](CN2CC(c3ccc(-n4c(-c5cccnc5N)nc5ccc(-c6ccccc6)nc54)cc3)C2)CC[C@@H]1C(=O)O [Compound I-70, (1S,4R)-4-((3-(4-(2-(2-aminopyridin-3-yl)-5-phenyl-3H-imidazo[4,5-b]pyridin-3-yl)phenyl)azetidin-1-yl)methyl)-2,2-dimethylcyclohexane-1-carboxylic acid] | > 6.30 | > 4.70
CC1(C)C[C@H](CN2CC(c3ccc(-n4c(-c5cccnc5N)nc5ccc(-c6ccccc6)nc54)cc3)C2)CC[C@H]1C(=O)O [Compound I-71, (1R,4R)-4-((3-(4-(2-(2-aminopyridin-3-yl)-5-phenyl-3H-imidazo[4,5-b]pyridin-3-yl)phenyl)azetidin-1-yl)methyl)-2,2-dimethylcyclohexane-1-carboxylic acid] | > 6.30 | > 4.70
Nc1ncccc1-c1nc2ccc(-n3cccn3)cc2n1-c1ccc(C2CN(C[C@H]3CC[C@H](C(=O)O)CC3)C2)cc1 [Compound I-72, (1r,4r)-4-((3-(4-(2-(2-aminopyridin-3-yl)-6-(1H-pyrazol-1-yl)-1H-benzo[d]imidazol-1-yl)phenyl)azetidin-1-yl)methyl)cyclohexane-1-carboxylic acid] | ≤ 5.70 | > 4.70
Nc1ncccc1-c1nc2cc(-c3cccnc3)cnc2n1-c1ccc(C2CN(C[C@H]3CC[C@H](C(=O)O)CC3)C2)cc1 [Compound I-73, (1r,4r)-4-((3-(4-(2-(2-aminopyridin-3-yl)-6-(pyridin-3-yl)-3H-imidazo[4,5-b]pyridin-3-yl)phenyl)azetidin-1-yl)methyl)cyclohexane-1-carboxylic acid] | ≤ 5.70 | > 4.70
CC(C)[C@@H]([C@H]1CC[C@H](C(=O)O)CC1)N1CC(c2ccc(-n3c(-c4cccnc4N)nc4ccc(-c5ccccc5)nc43)cc2)C1 [Compound I-74, (1S,4r)-4-((S)-1-(3-(4-(2-(2-aminopyridin-3-yl)-5-phenyl-3H-imidazo[4,5-b]pyridin-3-yl)phenyl)azetidin-1-yl)-2-methylpropyl)cyclohexane-1-carboxylic acid] | ≤ 5.70 | > 4.70
C[C@]1(C(=O)O)CC[C@@H](CN2CC(c3ccc(-n4c(-c5cccnc5N)nc5ccc(-c6ccccc6)nc54)cc3)C2)CC1 [Compound I-75, (1s,4s)-4-((3-(4-(2-(2-aminopyridin-3-yl)-5-phenyl-311-imidazo[4,5-b]pyridin-3-yl)phenyl)azetidin-1-yl)methyl)-1-methylcyclohexane-1-carboxylic acid] | > 6.30 | > 4.70
Nc1ncccc1-c1nc2ccc(-c3ccccc3)nc2n1-c1ccc(C2CCN(CC3CCC(C(=O)O)CC3)CC2)cc1 (stereo not drawn) [Compound I-76, 4-((4-(4-(2-(2-aminopyridin-3-yl)-5-phenyl-3H-imidazo[4,5-b]pyridin-3-yl)phenyl)piperidin-1-yl)methyl)cyclohexane-1-carboxylic acid] | 5.70 to 6.30 | > 4.70
Nc1ncccc1-c1nc2ccc(-c3ccccc3)nc2n1-c1ccc(C2CCCN(CC3CCC(C(=O)O)CC3)C2)cc1 (stereo not drawn) [Compound I-77, 4-((3-(4-(2-(2-aminopyridin-3-yl)-5-phenyl-3H-imidazo[4,5-b]pyridin-3-yl)phenyl)piperidin-1-yl)methyl)cyclohexane-1-carboxylic acid] | ≤ 5.70 | > 4.70
Nc1ncccc1-c1nc2ccc(-c3ccccc3)nc2n1-c1ccc(C2CCN(CC3CCC(C(=O)O)CC3)C2)cc1 (stereo not drawn) [Compound I-78, 4-((3-(4-(2-(2-aminopyridin-3-yl)-5-phenyl-3H-imidazo[4,5-b]pyridin-3-yl)phenyl)pyrrolidin-1-yl)methyl)cyclohexane-1-carboxylic acid] | 5.70 to 6.30 | > 4.70
CC(c1ccc(-n2c(-c3cccnc3N)nc3ccc(-c4ccccc4)nc32)cc1)N1CCC(C(=O)O)CC1 (stereo not drawn) [Compound I-79, 1-(1-(4-(2-(2-aminopyridin-3-yl)-5-phenyl-3H-imidazo[4,5-b]pyridin-3-yl)phenyl)ethyl)piperidine-4-carboxylic acid] | ≤ 5.70 | > 4.70
Nc1ncccc1-c1nc2ccc(-c3ccccc3)nc2n1-c1ccc(C(=O)N2CC3(CC(C(=O)O)C3)C2)cc1 [Compound I-80, 2-(4-(2-(2-aminopyridin-3-yl)-5-phenyl-3H-imidazo[4,5-b]pyridin-3-yl)benzoyl)-2-azaspiro[3.3]heptane-6-carboxylic acid] | ≤ 5.70 | > 4.70
CC(NC1CCC(C(=O)O)C1)c1ccc(-n2c(-c3cccnc3N)nc3ccc(-c4ccccc4)nc32)cc1F (stereo not drawn) [Compound I-81, 3-((1-(4-(2-(2-aminopyridin-3-yl)-5-phenyl-3H-imidazo[4,5-b]pyridin-3-yl)-2-fluorophenyl)ethyl)amino)cyclopentane-1-carboxylic acid] | ≤ 5.70 | > 4.70

The remaining lines, values ahead:

pIC50 [1] | pIC50 [2] | Structure (SMILES)
≤ 5.70 | > 4.70 | CC(C)(C(=O)O)C1CCN(C(=O)c2ccc(-n3c(-c4cccnc4N)nc4ccc(-c5ccccc5)nc43)cc2)C1 (stereo not drawn) [Compound I-82, 2-(1-(4-(2-(2-aminopyridin-3-yl)-5-phenyl-3H-imidazo[4,5-b]pyridin-3-yl)benzoyl)pyrrolidin-3-yl)-2-methylpropanoic acid]
≤ 5.70 | > 4.70 | CC(c1ccc(-n2c(-c3cccnc3N)nc3ccc(-c4ccccc4)nc32)cc1)N1CCCC(C(=O)O)C1 (stereo not drawn) [Compound I-83, 1-(1-(4-(2-(2-aminopyridin-3-yl)-5-phenyl-3H-imidazo[4,5-b]pyridin-3-yl)phenyl)ethyl)piperidine-3-carboxylic acid]
≤ 5.70 | > 4.70 | CC(c1ccc(-n2c(-c3cccnc3N)nc3ccc(-c4ccccc4)nc32)cc1)N1CCC(C(=O)O)C1 (stereo not drawn) [Compound I-84, 1-(1-(4-(2-(2-aminopyridin-3-yl)-5-phenyl-3H-imidazo[4,5-b]pyridin-3-yl)phenyl)ethyl)pyrrolidine-3-carboxylic acid]
≤ 5.70 | > 4.70 | CC1(C)CN(Cc2ccc(-n3c(-c4cccnc4N)nc4ccc(-c5ccccc5)nc43)cc2)CCC1C(=O)O (stereo not drawn) [Compound I-85, 1-[[4-[2-(2-amino-3-pyridyl)-5-phenyl-imidazo[4,5-b]pyridin-3-yl]phenyl]methyl]-3,3-dimethyl-piperidine-4-carboxylic acid]
5.70 to 6.30 | > 4.70 | CC1(C(=O)O)CCN(Cc2ccc(-n3c(-c4cccnc4N)nc4ccc(-c5ccccc5)nc43)cc2)CC1 [Compound I-86, 1-[[4-[2-(2-amino-3-pyridyl)-5-phenyl-imidazo[4,5-b]pyridin-3-yl]phenyl]methyl]-4-methyl-piperidine-4-carboxylic acid]
≤ 5.70 | > 4.70 | CC(C)(N[C@@H]1CC[C@@H](C(=O)O)C1)c1ccc(-n2c(-c3cccnc3N)nc3ccc(-c4ccccc4)nc32)cc1 [Compound I-87, (1R,3R)-3-((2-(4-(2-(2-aminopyridin-3-yl)-5-phenyl-3H-imidazo[4,5-b]pyridin-3-yl)phenyl)propan-2-yl)amino)cyclopentane-1-carboxylic acid]
≤ 5.70 | > 4.70 | CC(C)(N[C@@H]1CC[C@H](C(=O)O)C1)c1ccc(-n2c(-c3cccnc3N)nc3ccc(-c4ccccc4)nc32)cc1 [Compound I-88, (1S,3R)-3-((2-(4-(2-(2-aminopyridin-3-yl)-5-phenyl-3H-imidazo[4,5-b]pyridin-3-yl)phenyl)propan-2-yl)amino)cyclopentane-1-carboxylic acid]
≤ 5.70 | > 4.70 | CC(C)(NC1CCC(C(=O)O)CC1)c1ccc(-n2c(-c3cccnc3N)nc3ccc(-c4ccccc4)nc32)cc1 (stereo not drawn) [Compound I-89, (1r,4r)-4-((2-(4-(2-(2-aminopyridin-3-yl)-5-phenyl-3H-imidazo[4,5-b]pyridin-3-yl)phenyl)propan-2-yl)amino)cyclohexane-1-carboxylic acid]
> 6.30 | > 4.70 | Nc1ncccc1-c1nc2ccc(-c3ccccc3)nc2n1-c1ccc(CN[C@H]2CC[C@H](C(=O)O)CC2)cc1 [Compound I-90, (1r,4r)-4-((4-(2-(2-aminopyridin-3-yl)-5-phenyl-3H-imidazo[4,5-b]pyridin-3-yl)benzyl)amino)cyclohexane-1-carboxylic acid]
> 6.30 | > 4.70 | Nc1ncccc1-c1nc2ccc(-c3ccccc3)nc2n1-c1ccc(CN[C@H]2CC[C@@H](C(=O)O)CC2)cc1 [Compound I-91, (1s,4s)-4-((4-(2-(2-aminopyridin-3-yl)-5-phenyl-3H-imidazo[4,5-b]pyridin-3-yl)benzyl)amino)cyclohexane-1-carboxylic acid]
≤ 5.70 | > 4.70 | CC(C)(C(=O)O)C1CCN(Cc2ccc(-n3c(-c4cccnc4N)nc4ccc(-c5ccccc5)nc43)cc2)CC1 [Compound I-92, 2-(1-(4-(2-(2-aminopyridin-3-yl)-5-phenyl-3H-imidazo[4,5-b]pyridin-3-yl)benzyl)piperidin-4-yl)-2-methylpropanoic acid]
